Measured values: paper PMC10636063, “Progesterone activation of β1-containing BK channels involves two binding sites” (Nature Communications, 2023)
Several values for one entry are separate records, joined by “and”; a condition that tells them apart may be missing. Equal entries are not always repeated.

Columns and labels:
β1W87F = target: T1, β1W87F (Rattus norvegicus, UniProt P97678, W87F); assay: Thermal unfolding (MST) of β1W87F; format: binding; conditions: 0.004 and 4.1 µM
T1 construct: FLAG (DYKDDDDK); made in house; host or cells: CHO cells, transient transfection, anti-flag immunoprecipitation
T1 sequence (P97678 whole entry W87F): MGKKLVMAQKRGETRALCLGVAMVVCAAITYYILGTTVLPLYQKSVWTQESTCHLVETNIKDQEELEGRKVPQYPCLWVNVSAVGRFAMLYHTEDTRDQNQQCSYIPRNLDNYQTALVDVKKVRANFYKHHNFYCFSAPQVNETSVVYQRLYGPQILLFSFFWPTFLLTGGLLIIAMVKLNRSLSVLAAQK
Source text: BK channel-forming slo1 cDNA (cbv1 isoform; AY330293) was cloned from rat cerebral artery SM cells, and inserted into pcDNA3.1 vector as described. BK β1 cDNA (KCNMB1 product; NP_011452; FJ154955) were isolated from rat cerebral artery SM cells and cloned as described. β4 cDNA (KCNMB4; NP_055320; AY028605) were generously provided by Dr. Ligia Toro. CHO cells were transiently transfected with cbv1 ± β1-, or β4-carrying pcDNA3.1 using X-tremeGENE HP (Sigma-Aldrich). Mutations to β1/4 cDNAs were conducted by Genscript, with sequences being confirmed to be >99% identical to KCNMB1 product; NP_011452 or β4 KCNMB4; NP_055320; respectively. β1/4 and mutant constructs were flag-tagged (DYKDDDDK-tag) by Genscript services for subsequent immunoprecipitation and use in microscale thermophoresis studies.
Wt β1, wt β4 and mutant constructs were purified by immunoprecipitation using Dynabeads Protein G Kit (10007D by Invitrogen) and following the manufacturer’s instructions. […] The unfolding profile of a protein is a plot of its fluorescence signal against temperature. […] During the heating process, fluorescence is recorded at 330 and 350 nm. The resulting fluorescence ratio change is then analyzed for onset and inflection points. The temperature of onset and inflection is determined using built-in analysis function in Nanotemper PR.therm-control software. […]

cbv1+β1Y32F = target: T2, cbv1+β1Y32F (Rattus norvegicus, UniProt P97678, Y32F); assay: Channel activity (NPo) in POPE/POPS bilayers, cbv1+β1Y32F; format: biochemical
T2 construct: made in house; host or cells: CHO cells, transient transfection; sucrose-gradient membrane preparation
T2 sequence (P97678 whole entry Y32F): as the sequence (P97678 whole entry W87F) above, with Y32F, F87W counted along it
T2 sequence (Q62976 1-1148 isoform Q62976-2 partner): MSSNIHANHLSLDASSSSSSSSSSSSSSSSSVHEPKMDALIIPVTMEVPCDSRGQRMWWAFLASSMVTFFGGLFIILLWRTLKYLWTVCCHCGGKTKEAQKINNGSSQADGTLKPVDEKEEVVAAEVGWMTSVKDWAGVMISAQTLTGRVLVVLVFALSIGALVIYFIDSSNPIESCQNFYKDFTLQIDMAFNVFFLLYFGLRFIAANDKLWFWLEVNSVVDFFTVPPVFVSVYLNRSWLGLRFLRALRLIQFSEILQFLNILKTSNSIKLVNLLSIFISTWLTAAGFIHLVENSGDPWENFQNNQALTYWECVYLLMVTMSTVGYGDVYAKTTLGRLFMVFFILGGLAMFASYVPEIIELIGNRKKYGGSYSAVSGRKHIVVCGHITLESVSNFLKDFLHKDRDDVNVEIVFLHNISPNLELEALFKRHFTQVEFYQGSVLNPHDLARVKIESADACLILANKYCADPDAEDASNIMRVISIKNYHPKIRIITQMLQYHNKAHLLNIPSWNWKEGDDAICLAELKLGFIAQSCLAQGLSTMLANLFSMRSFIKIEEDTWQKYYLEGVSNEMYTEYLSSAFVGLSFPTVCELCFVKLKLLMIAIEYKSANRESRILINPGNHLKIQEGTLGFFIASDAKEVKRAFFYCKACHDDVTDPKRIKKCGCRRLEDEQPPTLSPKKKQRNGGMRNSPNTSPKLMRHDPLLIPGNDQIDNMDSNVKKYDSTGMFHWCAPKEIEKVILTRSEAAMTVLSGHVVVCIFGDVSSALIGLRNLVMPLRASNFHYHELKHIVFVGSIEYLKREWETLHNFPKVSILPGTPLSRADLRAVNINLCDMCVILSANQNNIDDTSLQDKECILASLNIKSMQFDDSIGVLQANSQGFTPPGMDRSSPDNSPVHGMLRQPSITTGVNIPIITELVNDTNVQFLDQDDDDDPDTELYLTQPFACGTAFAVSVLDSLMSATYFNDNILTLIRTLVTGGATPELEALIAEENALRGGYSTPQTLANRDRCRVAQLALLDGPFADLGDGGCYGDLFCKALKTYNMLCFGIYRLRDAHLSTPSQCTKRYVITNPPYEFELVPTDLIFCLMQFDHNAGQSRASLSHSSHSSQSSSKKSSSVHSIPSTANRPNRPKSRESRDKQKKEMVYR
Source text: BK channel-forming slo1 cDNA (cbv1 isoform; AY330293) was cloned from rat cerebral artery SM cells, and inserted into pcDNA3.1 vector as described. BK β1 cDNA (KCNMB1 product; NP_011452; FJ154955) were isolated from rat cerebral artery SM cells and cloned as described. β4 cDNA (KCNMB4; NP_055320; AY028605) were generously provided by Dr. Ligia Toro. CHO cells were transiently transfected with cbv1 ± β1-, or β4-carrying pcDNA3.1 using X-tremeGENE HP (Sigma-Aldrich). […]
Proteins for electrophysiological recordings in artificial lipid bilayers remained untagged. […] BK channel-mediated ionic current was recorded in planar lipid bilayers consisting of a POPE:POPS 3:1 (w/w) mixture. […]
Patch-clamp and bilayer data were analyzed using Clampfit 10.7 software (Molecular Devices). […] Drug-induced NPo changes were determined by comparing baseline NPo (i.e., NPo with the patch/cell perfused with bath solution) to the NPo from the same patch/cell exposed to the agent under study (DMSO/PROG/oxime) dissolved in bath solution. NPo and mean open time values were automatically calculated using Clampfit 10.7, the latter using a 50% threshold detection event.

[1] = target: T3, smooth muscle myocyte BK channels (C57BL/6) (Mus musculus, UniProt Q8CAE3); assay: Inside-out patch-clamp of MCA smooth muscle myocytes, wt mice; format: cell-based
T3 construct: endogenous in cells; host or cells: freshly isolated mouse middle cerebral artery smooth muscle cells, inside-out patches
T3 sequence (Q8CAE3 whole entry): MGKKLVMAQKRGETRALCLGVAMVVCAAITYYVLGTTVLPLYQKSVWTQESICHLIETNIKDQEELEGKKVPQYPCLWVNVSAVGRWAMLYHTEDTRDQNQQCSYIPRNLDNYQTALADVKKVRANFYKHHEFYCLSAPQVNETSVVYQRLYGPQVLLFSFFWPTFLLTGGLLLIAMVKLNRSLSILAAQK
T3 sequence (Q08460 whole entry partner): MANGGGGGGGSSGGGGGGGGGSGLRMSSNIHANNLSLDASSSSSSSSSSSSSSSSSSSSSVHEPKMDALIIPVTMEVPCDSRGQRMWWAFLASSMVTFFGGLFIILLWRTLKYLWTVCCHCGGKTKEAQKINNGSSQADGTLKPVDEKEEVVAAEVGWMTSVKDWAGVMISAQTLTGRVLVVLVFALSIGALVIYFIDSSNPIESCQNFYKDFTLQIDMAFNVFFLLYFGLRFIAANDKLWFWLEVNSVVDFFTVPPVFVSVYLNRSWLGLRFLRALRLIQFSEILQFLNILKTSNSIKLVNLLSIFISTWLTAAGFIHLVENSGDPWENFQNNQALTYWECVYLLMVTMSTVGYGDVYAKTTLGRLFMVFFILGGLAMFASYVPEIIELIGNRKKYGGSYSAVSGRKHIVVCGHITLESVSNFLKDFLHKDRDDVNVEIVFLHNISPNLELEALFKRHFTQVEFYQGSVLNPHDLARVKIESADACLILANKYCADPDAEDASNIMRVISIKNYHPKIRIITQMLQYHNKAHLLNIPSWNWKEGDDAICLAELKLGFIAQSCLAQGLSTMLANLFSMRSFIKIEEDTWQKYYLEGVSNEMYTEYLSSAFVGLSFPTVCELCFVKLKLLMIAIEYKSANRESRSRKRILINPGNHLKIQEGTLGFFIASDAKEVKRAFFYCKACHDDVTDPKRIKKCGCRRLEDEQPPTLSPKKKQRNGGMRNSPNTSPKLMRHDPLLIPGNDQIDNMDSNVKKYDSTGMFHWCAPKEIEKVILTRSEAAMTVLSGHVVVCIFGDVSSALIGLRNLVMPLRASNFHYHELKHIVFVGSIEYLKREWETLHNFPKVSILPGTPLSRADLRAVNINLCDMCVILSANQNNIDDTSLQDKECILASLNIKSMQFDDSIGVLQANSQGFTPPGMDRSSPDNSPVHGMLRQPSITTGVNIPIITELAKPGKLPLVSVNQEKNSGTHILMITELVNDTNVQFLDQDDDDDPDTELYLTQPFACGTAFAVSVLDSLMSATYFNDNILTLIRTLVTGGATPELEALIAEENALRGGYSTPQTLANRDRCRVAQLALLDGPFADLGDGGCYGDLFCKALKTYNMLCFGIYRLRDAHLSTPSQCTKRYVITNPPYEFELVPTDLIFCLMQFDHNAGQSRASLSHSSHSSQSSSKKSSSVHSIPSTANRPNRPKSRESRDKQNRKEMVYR
Description: Ionic currents were recorded from excised, inside-out (I/O) patches. […] In all experiments, free [Ca^2+] in solution was adjusted to the desired value by adding the appropriate amount of Ca^2+ from a 1 mM CaCl2 stock. An agar bridge with Cl^- as main anion was used as ground electrode. Solutions were applied onto the cytosolic side of I/O patches using an automated, pressurized system (Octaflow; […] Ionic currents at single channel resolution were recorded using an EPC8 amplifier (HEKA) at 1 kHz. Data were digitized at 5 kHz using a Digidata […] A/D converter and pCLAMP 8.0 (Molecular Devices); n = 5/group. […] Drug-induced NPo changes were determined by comparing baseline NPo (i.e., NPo with the patch/cell perfused with bath solution) to the NPo from the same patch/cell exposed to the agent under study (DMSO/PROG/oxime) dissolved in bath solution.

[2] = test system: BK channel, construct not given; assay: Channel activity (NPo) time course, Fig 4E block headed only '10 uM PROG'; format: biochemical

## CC(=O)[C@H]1CC[C@H]2[C@@H]3CCC4=CC(=O)CC[C@]4(C)[C@H]3CC[C@]12C [PROG, Progesterone]
β1W87F
  effect on thermal unfolding / binding: loss of PROG binding
cbv1+β1Y32F; 10 µM, vs DMSO
  action on channel activity (NPo): significantly activated
cbv1+β1Y32F; SFig3A, cbv1+y32f, individual bilayers
  channel activity (NPo) with prog, normalized: 3.7931 and 1.379 and 2.626 and 0.9886 and 1.589
[1]; 10 µM, I/O patches, 30 μM free Ca2+
  increase of BK channel activity: ~ 3 fold
[1]; wt mouse, PROG, time 1 (normalisation reference), columns = cell number
  normalized NPo, time course Fig 5C: 1
[2]; time 1 min (normalisation reference)
  normalized NPo, time course Fig 4E: 1
[2]; time 2 min
  normalized NPo, time course Fig 4E: 0.9853 and 1 and 0.9322 and 1.014 and 0.7178
[2]; time 4 min
  normalized NPo, time course Fig 4E: 1.015 and 1.069 and 1.029 and 1.047 and 1.067
[2]; time 5 min
  normalized NPo, time course Fig 4E: 1.11 and 1.053 and 1.066 and 1.023 and 1.182
[2]; time 6 min
  normalized NPo, time course Fig 4E: 1.088 and 1.041 and 1.129 and 1.028 and 1.207
[2]; time 7 min
  normalized NPo, time course Fig 4E: 1.162 and 1.118 and 1.064 and 0.8935 and 1.1318
[2]; time 8 min
  normalized NPo, time course Fig 4E: 1.096 and 1.061 and 1.045 and 1.148 and 1.63
[2]; time 10 min
  normalized NPo, time course Fig 4E: 1.11 and 0.7114 and 1.049 and 1.394 and 1.416
